Data as given in PubChem BioAssay (NCI).
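GI50 is the concentration that inhibits growth by half. Definition used: TGI = concentration required for complete inhibition of growth.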

Tests used:
Assay in all cases: growth of human tumour cells (NCI), 384-well format
[1] = test system: UACC-257 melanoma
[2] = test system: PC-3 prostate
[3] = test system: SN12C renal
[4] = test system: NCI-H226 lung
[5] = test system: SW-620 colon
[6] = test system: RXF 393 renal
[7] = test system: A549 NSCLC
[8] = test system: HOP-62 NSCLC
[9] = test system: TK-10 renal
[10] = test system: T-47D breast
[11] = test system: OVCAR-5 ovarian
[12] = test system: KM12 colon
[13] = test system: SK-MEL-5 melanoma
[14] = test system: SR leukemia
[15] = test system: SNB-19 CNS
[16] = test system: 786-0 renal
[17] = test system: M14 melanoma
[18] = test system: SF-539 CNS
[19] = test system: MALME-3M melanoma
[20] = test system: NCI-H322M lung
[21] = test system: RPMI-8226 leukemia
[22] = test system: UO-31 renal
[23] = test system: MDA-MB-231 breast
[24] = test system: OVCAR-4 ovarian
[25] = test system: HL-60(TB) leukemia
[26] = test system: OVCAR-8 ovarian
[27] = test system: BT-549 breast
[28] = test system: CAKI-1 renal
[29] = test system: SF-268 CNS
[30] = test system: IGROV1 ovarian
[31] = test system: NCI-H460 NSCLC
[32] = test system: NCI-H522 lung
[33] = test system: OVCAR-3 ovarian
[34] = test system: A498 renal
[35] = test system: MCF7 breast
[36] = test system: MOLT-4 leukemia
[37] = test system: HCT-15 colon
[38] = test system: ACHN renal
[39] = test system: HCC-2998 colon
[40] = test system: NCI-H23 lung
[41] = test system: NCI/ADR-RES ovarian
[42] = test system: UACC-62 melanoma
[43] = test system: SK-OV-3 ovarian
[44] = test system: CCRF-CEM leukemia
[45] = test system: HS 578T breast
[46] = test system: SF-295 CNS
[47] = test system: COLO 205 colon
[48] = test system: DU-145 prostate
[49] = test system: SNB-75 CNS
[50] = test system: U251 glioblastoma
[51] = test system: MDA-MB-468 breast
[52] = test system: MDA-MB-435 melanoma
[53] = test system: EKVX NSCLC
[54] = test system: K-562 leukemia
[55] = test system: LOX IMVI melanoma
[56] = test system: SK-MEL-28 melanoma
[57] = test system: HT29 colon
[58] = test system: HOP-92 NSCLC

With `COc1ccc(Br)cc1NC(=O)Nc1cccc2c1ccn2Cc1ccnc(N)c1` as the compound, how does the GI50 [1] read?
The GI50 was 4.42 µM.

What about the TGI [1] of the same compound?
Its TGI is 14.2 µM.

And the GI50 [2]?
Its GI50 is 6.67 µM.

What about the TGI [2] of the same compound?
Its TGI is 18.9 µM.

And the GI50 [3]?
Its GI50 is 6.14 µM.

What about the TGI [3] of the same compound?
Its TGI is 19.2 µM.

And the GI50 [4]?
Its GI50 is 5.77 µM.

What about the TGI [4] of the same compound?
Its TGI is 17.9 µM.

What about the GI50 [5] of the same compound?
Its GI50 is 12.4 µM.

What about the TGI [5] of the same compound?
The TGI was 25 µM.

What about the GI50 [6] of the same compound?
Its GI50 is 6.56 µM.

And the TGI [6]?
Its TGI is 18.7 µM.

And the GI50 [7]?
The GI50 was 7.56 µM.

What about the TGI [7] of the same compound?
The TGI was 20.2 µM.

And the GI50 [8]?
The GI50 was 11.7 µM.

What about the TGI [8] of the same compound?
Its TGI is 24.1 µM.

What about the GI50 [9] of the same compound?
Its GI50 is 6.85 µM.

And the TGI [9]?
Its TGI is 20 µM.

And the GI50 [10]?
Its GI50 is 3.77 µM.

And the TGI [10]?
The TGI was 11.8 µM.

What about the GI50 [11] of the same compound?
Its GI50 is 11.8 µM.

What about the TGI [11] of the same compound?
Its TGI is 24.6 µM.

And the GI50 [12]?
Its GI50 is 2.54 µM.

And the TGI [12]?
The TGI was 5.81 µM.

And the GI50 [13]?
Its GI50 is 4.55 µM.

What about the TGI [13] of the same compound?
The TGI was 15.4 µM.

What about the GI50 [14] of the same compound?
The GI50 was 1.75 µM.

And the TGI [14]?
The TGI was 3.72 µM.

And the GI50 [15]?
Its GI50 is 9.24 µM.

And the TGI [15]?
Its TGI is 21.7 µM.

What about the GI50 [16] of the same compound?
The GI50 was 4.23 µM.

What about the TGI [16] of the same compound?
The TGI was 16.6 µM.

And the GI50 [17]?
Its GI50 is 6.29 µM.

What about the TGI [17] of the same compound?
The TGI was 18.1 µM.

What about the GI50 [18] of the same compound?
The GI50 was 4.44 µM.

What about the TGI [18] of the same compound?
The TGI was 18 µM.

And the GI50 [19]?
The GI50 was 7.13 µM.

And the TGI [19]?
The TGI was 19.9 µM.

What about the GI50 [20] of the same compound?
The GI50 was 8.46 µM.

And the TGI [20]?
Its TGI is 21.4 µM.

What about the GI50 [21] of the same compound?
The GI50 was 2.35 µM.

What about the TGI [21] of the same compound?
The TGI was 6.39 µM.

And the GI50 [22]?
The GI50 was 12.2 µM.

And the TGI [22]?
The TGI was 24.9 µM.

What about the GI50 [23] of the same compound?
The GI50 was 13.2 µM.

What about the TGI [23] of the same compound?
The TGI was 26.1 µM.

What about the GI50 [24] of the same compound?
The GI50 was 3.72 µM.

And the TGI [24]?
Its TGI is 9.86 µM.

What about the GI50 [25] of the same compound?
The GI50 was 1.87 µM.

What about the TGI [25] of the same compound?
Its TGI is 4.64 µM.

And the GI50 [26]?
The GI50 was 11.9 µM.

What about the TGI [26] of the same compound?
Its TGI is 24.5 µM.

What about the GI50 [27] of the same compound?
Its GI50 is 9.64 µM.

And the TGI [27]?
The TGI was 21.5 µM.

What about the GI50 [28] of the same compound?
The GI50 was 10.7 µM.

And the TGI [28]?
The TGI was 22.8 µM.

What about the GI50 [29] of the same compound?
Its GI50 is 9.97 µM.

And the TGI [29]?
Its TGI is 21.9 µM.

And the GI50 [30]?
The GI50 was 11.3 µM.

And the TGI [30]?
The TGI was 23.6 µM.

And the GI50 [31]?
Its GI50 is 3.15 µM.

And the TGI [31]?
The TGI was 9.4 µM.

And the GI50 [32]?
The GI50 was 3.51 µM.

And the TGI [32]?
The TGI was 10.6 µM.

What about the GI50 [33] of the same compound?
The GI50 was 10 µM.

And the TGI [33]?
The TGI was 21.7 µM.

What about the GI50 [34] of the same compound?
The GI50 was 3.56 µM.

What about the TGI [34] of the same compound?
Its TGI is 13.5 µM.

And the GI50 [35]?
Its GI50 is 5.26 µM.

And the TGI [35]?
Its TGI is 18.3 µM.

And the GI50 [36]?
The GI50 was 1.56 µM.

What about the TGI [36] of the same compound?
Its TGI is 3.55 µM.

And the GI50 [37]?
The GI50 was 2.02 µM.

What about the TGI [37] of the same compound?
The TGI was 3.63 µM.

What about the GI50 [38] of the same compound?
The GI50 was 7.08 µM.

And the TGI [38]?
Its TGI is 20.3 µM.

And the GI50 [39]?
Its GI50 is 3.51 µM.

What about the TGI [39] of the same compound?
The TGI was 8.43 µM.

And the GI50 [40]?
Its GI50 is 9.53 µM.

And the TGI [40]?
The TGI was 21.6 µM.

What about the GI50 [41] of the same compound?
The GI50 was 10.5 µM.

And the TGI [41]?
Its TGI is 23 µM.

What about the GI50 [42] of the same compound?
Its GI50 is 5.8 µM.

And the TGI [42]?
The TGI was 18.6 µM.

And the GI50 [43]?
The GI50 was 8.96 µM.

What about the TGI [43] of the same compound?
The TGI was 21.1 µM.

And the GI50 [44]?
The GI50 was 2.49 µM.

What about the TGI [44] of the same compound?
The TGI was 5.33 µM.

And the GI50 [45]?
The GI50 was 6.06 µM.

What about the TGI [45] of the same compound?
The TGI was 17.8 µM.

And the GI50 [46]?
Its GI50 is 2.82 µM.

And the TGI [46]?
The TGI was 8.47 µM.

And the GI50 [47]?
The GI50 was 5.82 µM.

What about the TGI [47] of the same compound?
The TGI was 18.2 µM.

And the GI50 [48]?
Its GI50 is 12.9 µM.

And the TGI [48]?
The TGI was 27.9 µM.

What about the GI50 [49] of the same compound?
Its GI50 is 14.1 µM.

What about the TGI [49] of the same compound?
Its TGI is 29.7 µM.

What about the GI50 [50] of the same compound?
The GI50 was 6.92 µM.

What about the TGI [50] of the same compound?
The TGI was 19.5 µM.

And the GI50 [51]?
The GI50 was 2.81 µM.

And the TGI [51]?
Its TGI is 5.07 µM.

What about the GI50 [52] of the same compound?
Its GI50 is 10.9 µM.

And the TGI [52]?
The TGI was 23 µM.

What about the GI50 [53] of the same compound?
Its GI50 is 8.67 µM.

What about the TGI [53] of the same compound?
The TGI was 22 µM.

What about the GI50 [54] of the same compound?
Its GI50 is 1.47 µM.

And the TGI [54]?
The TGI was 2.81 µM.

And the GI50 [55]?
Its GI50 is 4.85 µM.

And the TGI [55]?
The TGI was 15.2 µM.

What about the GI50 [56] of the same compound?
The GI50 was 11.5 µM.

What about the TGI [56] of the same compound?
Its TGI is 23.7 µM.

What about the GI50 [57] of the same compound?
Its GI50 is 2.01 µM.

What about the TGI [57] of the same compound?
The TGI was 4.13 µM.

And the GI50 [58]?
Its GI50 is 5.73 µM.

What about the TGI [58] of the same compound?
The TGI was 18.3 µM.
